In US6919092B2, “Method for the management of incontinence” (ALZA Corporation, priority 1995, dated 2005):

Test: Multiple dose crossover clinical pharmacokinetic study, IR vs CR oxybutynin
Conditions: plasma

CCNCC#CCOC(=O)C(O)(c1ccccc1)C1CCCCC1 (stereo not shown) [DESOXY]
t1/2 life of DESOXY compared to OXY: shorter
